Test systems include HOP-62 NSCLC; MDA-MB-231 breast; OVCAR-3 ovarian; NCI-H460 lung; CCRF-CEM leukemia; SF-268 CNS; MALME-3M melanoma; OVCAR-4 ovarian; SK-MEL-2 melanoma; PC-3 prostate.
Holding throughout (assay): DTP human tumour cell line panel, 48 h

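Five compound concentrations were applied to cells in 96-well plates for 48 hours; endpoints were derived by simple linear interpolation of the resulting dose-response curve. GI50: concentration for 50% inhibition of growth. TGI: total growth inhibition.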 Bounds are passed on as bounds.

In the case of `Clc1ccc2[nH]cc(-c3nc(-c4c[nH]c5ncccc45)cs3)c2c1`, the GI50 in the experiment with HOP-62 NSCLC was 5.2 µM; in the experiment with MDA-MB-231 breast, 2.2 µM; in the experiment with OVCAR-3 ovarian, 6.69 µM; in the experiment on NCI-H460 lung, 2.56 µM; with CCRF-CEM leukemia, 4.14 µM; in the experiment on SF-268 CNS, 5.06 µM. Also, the GI50 in the experiment with MALME-3M melanoma was 5.17 µM; in the experiment on OVCAR-4 ovarian it was 2.85 µM; with SK-MEL-2 melanoma it was 6.51 µM; with PC-3 prostate it was 3.5 µM. Also, the TGI with HOP-62 NSCLC was 27.3 µM; in the experiment with MDA-MB-231 breast it was 17.1 µM; with OVCAR-3 ovarian, 34.1 µM; in the experiment on NCI-H460 lung, 9.15 µM; with CCRF-CEM leukemia, over 100 µM; in the experiment with SF-268 CNS, 32.4 µM. Further, the TGI turned out to be 19 µM with MALME-3M melanoma, 36.5 µM in the experiment on OVCAR-4 ovarian, 23.7 µM with SK-MEL-2 melanoma and 28 µM with PC-3 prostate.
Consider `CC[C@@]1(O)C(=O)NCc2c1cc1n(c2=O)Cc2cc3c(N)cccc3nc2-1`, for which the GI50 in the experiment on HOP-62 NSCLC is 0.973 µM; with MDA-MB-231 breast it was 16.4 µM; in the experiment on OVCAR-3 ovarian, 11 µM; in the experiment with NCI-H460 lung, 0.305 µM; in the experiment with CCRF-CEM leukemia, 0.185 µM; with SF-268 CNS, 0.558 µM. Moreover, the GI50 was 1.1 µM in the experiment with MALME-3M melanoma, 11.4 µM in the experiment with OVCAR-4 ovarian, 9.29 µM with SK-MEL-2 melanoma and 9.99 µM in the experiment on PC-3 prostate. Further, the TGI with MDA-MB-231 breast is over 60.3 µM; in the experiment on OVCAR-3 ovarian, 40 µM; in the experiment with NCI-H460 lung it was 27.8 µM; with CCRF-CEM leukemia it was over 19.5 µM; in the experiment on OVCAR-4 ovarian, over 41.5 µM; with SK-MEL-2 melanoma, over 17.7 µM. The molecule also had a TGI with PC-3 prostate of over 55.4 µM.
As for `O=c1nc(Nc2cccc(Cl)c2)oc2cc(Cl)oc(=O)c12`, the GI50 in the experiment on HOP-62 NSCLC was 11 µM; with MDA-MB-231 breast, 5.78 µM; in the experiment on OVCAR-3 ovarian it was 3.48 µM; in the experiment with NCI-H460 lung, 16.7 µM; with CCRF-CEM leukemia, 2.87 µM; in the experiment with SF-268 CNS it was 3.69 µM. Further, the GI50 with MALME-3M melanoma was 4.36 µM; with OVCAR-4 ovarian, 10.9 µM; in the experiment with SK-MEL-2 melanoma it was 2.02 µM; in the experiment with PC-3 prostate it was 10.8 µM. Also, the TGI in the experiment on HOP-62 NSCLC is 31.4 µM; in the experiment with MDA-MB-231 breast, 30.9 µM; with OVCAR-3 ovarian, 13.3 µM; in the experiment on NCI-H460 lung, 39.9 µM; in the experiment with CCRF-CEM leukemia, 14.9 µM; in the experiment with SF-268 CNS it was 14.2 µM. Further, the TGI with MALME-3M melanoma was 18.8 µM; in the experiment with OVCAR-4 ovarian, over 100 µM; in the experiment with SK-MEL-2 melanoma it was 4.61 µM; in the experiment with PC-3 prostate, 66.5 µM.
For `O=C(Nc1ccc(F)cc1)c1c(NC(=O)C(F)(F)F)sc2c1CCCCC2`, the GI50 is 2.26 µM with HOP-62 NSCLC; 1.75 µM in the experiment on MDA-MB-231 breast; 2.04 µM in the experiment with OVCAR-3 ovarian; 2.13 µM in the experiment on NCI-H460 lung; 1.5 µM in the experiment on CCRF-CEM leukemia; 2.28 µM in the experiment on SF-268 CNS. Besides, the GI50 was 1.81 µM in the experiment with MALME-3M melanoma, 1.65 µM in the experiment with OVCAR-4 ovarian, 1.47 µM in the experiment with SK-MEL-2 melanoma and 1.59 µM with PC-3 prostate. In addition, the TGI in the experiment with HOP-62 NSCLC is 6.48 µM; with MDA-MB-231 breast, 7.3 µM; in the experiment on OVCAR-3 ovarian, 16.3 µM; in the experiment with NCI-H460 lung, 10 µM; with CCRF-CEM leukemia, 15.1 µM; in the experiment with SF-268 CNS it was 88 µM. Besides, the TGI is 5.72 µM in the experiment with MALME-3M melanoma, 8.34 µM in the experiment with OVCAR-4 ovarian, 6.75 µM with SK-MEL-2 melanoma and 7.87 µM in the experiment with PC-3 prostate.
As for `CC1=C[C@H]2c3c(c(O)c(O)c4oc5ccccc5c(=O)c34)[C@H](c3cc(O)c(O)c4oc5ccccc5c(=O)c34)[C@H]2C(C)(C)C1`, the GI50 in the experiment with HOP-62 NSCLC is 0.978 µM; in the experiment with MDA-MB-231 breast it was 2.9 µM; with OVCAR-3 ovarian, 0.426 µM; with NCI-H460 lung, 0.22 µM; in the experiment with CCRF-CEM leukemia, 0.609 µM; with SF-268 CNS, 1.14 µM. The GI50 with MALME-3M melanoma is 2.3 µM; in the experiment with OVCAR-4 ovarian it was 0.786 µM; with SK-MEL-2 melanoma, 2.24 µM; with PC-3 prostate it was 1.1 µM. Besides, the TGI in the experiment with HOP-62 NSCLC is 8.35 µM; in the experiment on MDA-MB-231 breast, 19.1 µM; with OVCAR-3 ovarian, 10.5 µM; in the experiment on NCI-H460 lung it was 1.83 µM; with CCRF-CEM leukemia it was over 100 µM; with SF-268 CNS, 16.4 µM. Moreover, the TGI with MALME-3M melanoma came to 11.1 µM; with OVCAR-4 ovarian it was 20.2 µM; with SK-MEL-2 melanoma, 6.72 µM; in the experiment on PC-3 prostate, 16.5 µM.
Regarding `COC(=O)c1c2c(c(C)[n+]([O-])c1C)C(=O)C=C(NCc1ccc(F)c(F)c1)C2=O`, the GI50 was 0.86 µM with HOP-62 NSCLC; 0.251 µM in the experiment with MDA-MB-231 breast; 0.256 µM with OVCAR-3 ovarian; 0.45 µM in the experiment on NCI-H460 lung; 0.409 µM with CCRF-CEM leukemia; 1.07 µM with SF-268 CNS. Besides, the GI50 was 0.139 µM in the experiment with MALME-3M melanoma, 0.177 µM in the experiment with OVCAR-4 ovarian, 0.874 µM with SK-MEL-2 melanoma and 0.279 µM in the experiment with PC-3 prostate. Besides, the TGI in the experiment on HOP-62 NSCLC is 2.5 µM; in the experiment with MDA-MB-231 breast, 1.83 µM; in the experiment on OVCAR-3 ovarian it was 0.766 µM; in the experiment on NCI-H460 lung it was 1.79 µM; in the experiment on CCRF-CEM leukemia, 2.47 µM; with SF-268 CNS it was 3.32 µM. Further, the TGI in the experiment with MALME-3M melanoma was 0.301 µM; in the experiment on OVCAR-4 ovarian, 0.666 µM; in the experiment with SK-MEL-2 melanoma, 2.37 µM; in the experiment with PC-3 prostate, 2.42 µM.
`O=C(NCCCNc1cc(-c2cn(-c3ccccc3)nc2-c2cccc(O)c2)ccn1)c1ccccc1`: the GI50 with HOP-62 NSCLC was 3.79 µM; in the experiment on MDA-MB-231 breast it was 2.34 µM; in the experiment with OVCAR-3 ovarian, 3.73 µM; in the experiment with NCI-H460 lung it was 3.61 µM; in the experiment on CCRF-CEM leukemia it was 3.14 µM; in the experiment on SF-268 CNS, 3.74 µM. Besides, the GI50 in the experiment with MALME-3M melanoma was 1.73 µM; in the experiment on OVCAR-4 ovarian, 3.56 µM; in the experiment on SK-MEL-2 melanoma, 3.42 µM; in the experiment on PC-3 prostate, 2.1 µM. The TGI in the experiment on HOP-62 NSCLC is 14.1 µM; in the experiment on MDA-MB-231 breast it was 5.4 µM; in the experiment on OVCAR-3 ovarian, 21 µM; with NCI-H460 lung it was 18.7 µM; with CCRF-CEM leukemia, 54.7 µM; in the experiment on SF-268 CNS, over 100 µM. Moreover, the TGI worked out at 4.53 µM in the experiment with MALME-3M melanoma, 77.3 µM in the experiment on OVCAR-4 ovarian, 13.7 µM with SK-MEL-2 melanoma and 15.2 µM in the experiment on PC-3 prostate.
With `COC(=O)c1sc(C(=O)OC)c2c1CSC2`, the TGI in the experiment on HOP-62 NSCLC, in the experiment with MDA-MB-231 breast, with OVCAR-3 ovarian, in the experiment on NCI-H460 lung, in the experiment on CCRF-CEM leukemia and in the experiment on SF-268 CNS was over 100 µM throughout. Moreover, the TGI in the experiment with MALME-3M melanoma, in the experiment with OVCAR-4 ovarian, in the experiment on SK-MEL-2 melanoma and in the experiment on PC-3 prostate was over 100 µM throughout.

For orientation: GI50 means the concentration at which growth is held to half of that of the control. The term TGI denotes the concentration at which net growth stops. Low values mean more potent growth arrest, high ones less potent growth arrest.
